Patent US20190100534A1, “Cephem Compounds with Latent Reactive Groups” (Gladius Pharmaceuticals, Inc., priority 2017, published 2019)

Assays:
Assay type in all cases: cell-based
[1] = test system: Isogenic E. coli J58 strain carrying TEM-26; assay: MIC determination, isogenic E. coli strains; conditions: Escherichia coli, 18 h, read-out: Mimimum Inhibitory Concentrations, TEM-26
Method in brief: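 E. coli J53 carried a pBC-SK(+) plasmid expressing TEM-26 β-lactamase. Compounds were serially halved from […] in CAMH broth containing 20 μM apo-transferrin, inoculated from a 0.5 McFarland culture and held overnight (18 h, 37° C); MIC read as the lowest concentration without visible growth.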

[2] = test system: Isogenic E. coli J58 strain carrying NDM-1; assay: MIC determination, isogenic E. coli strains; conditions: Escherichia coli, 18 h, read-out: Mimimum Inhibitory Concentrations, NDM-1
Method in brief: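 Broth microdilution was run in cation-adjusted Mueller-Hinton broth supplemented with 20 μM apo-transferrin, using a 64 μg/mL top concentration diluted twofold. The inoculum was NDM-1-expressing E. coli J53 (pBC-SK(+) plasmid) at 0.5 McFarland. After overnight incubation (18 h, 37° C), the lowest compound concentration preventing visible growth was recorded as the MIC.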

[3] = test system: Isogenic E. coli J58 strain carrying CTX-M-15; assay: MIC determination, isogenic E. coli strains; conditions: Escherichia coli, 18 h, read-out: Mimimum Inhibitory Concentrations, CTX-M-15
Method in brief: (§1)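 Isogenic E. coli J53 carrying plasmid-encoded CTX-M-14 or CTX-M-15 (ampicillin-selected), standardized to 0.08-0.1 OD600, incubated overnight (18 h, 37° C.) in CAMH broth plus 20 μM apo-transferrin over 2-fold compound dilutions starting at 64 μg/mL. Lowest concentration with no visible growth recorded as MIC.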

[4] = test system: Isogenic E. coli J58 strain carrying CTX-M-14; assay: MIC determination, isogenic E. coli strains; conditions: Escherichia coli, 18 h, read-out: Mimimum Inhibitory Concentrations, CTX-M-14
Method in brief: as §1

[5] = test system: Isogenic E. coli J58 strain carrying SHV-1; assay: MIC determination, isogenic E. coli strains; conditions: Escherichia coli, 18 h, read-out: Mimimum Inhibitory Concentrations, SHV-1
Method in brief: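 MIC is the lowest compound concentration leaving a transparent well after overnight (18 h) incubation at 37 °C. The test strain was E. coli J53 expressing plasmid-borne SHV-1 beta-lactamase from pBC-SK(+), adjusted to 0.5 McFarland. Compounds were twofold serially diluted, starting at 64 μg/mL, in CAMH broth supplemented with 20 μM apo-transferrin.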

[6] = test system: Isogenic E. coli J58 strain carrying VIM-2; assay: MIC determination, isogenic E. coli strains; conditions: Escherichia coli, 18 h, read-out: Mimimum Inhibitory Concentrations, VIM-2
Method in brief: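 Broth microdilution in cation-adjusted Mueller-Hinton with 20 μM apo-transferrin, compound serially halved from 64 μg/mL, read by eye after 18 h at 37 °C as lowest clear well. Inoculum: VIM-2-expressing E. coli J53 (pBC-SK(+) plasmid), adjusted to 0.5 McFarland.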

[7] = test system: E. coli J53 Alone; assay: MIC determination, isogenic E. coli strains; conditions: for MIC: Escherichia coli, J53ALONE, 18 h, read-out: Mimimum Inhibitory Concentrations, J53 Alone; for Mimimum Inhibitory Concentrations, J53 Alone: Table 4-2, CAMH broth, 20 μM Apo-Transferrin, 37° C., 18 hours
Method in brief: (§2)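 MIC read as the lowest compound level giving a transparent well after 18 h at 37° C. Strains: parent E. coli J53 and isogenic transformants expressing plasmid-borne (pBC-SK(+)) beta-lactamases such as DHA-1; inoculum 0.5 McFarland; CAMH broth plus 20 μM apo-transferrin; compound 64 μg/mL downward, 2-fold dilutions.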

[8] = test system: Isogenic E. coli J58 strain carrying DHA-1; assay: MIC determination, isogenic E. coli strains; conditions: Escherichia coli, 18 h, read-out: Mimimum Inhibitory Concentrations, DHA-1
Method in brief: as §2

[9] = test system: Pseudomonas aeruginosa PA-RR-(G8062859); assay: MIC determination; conditions: Pseudomonas aeruginosa; PA-RR-(G8062859); CAMH broth, 20 μM Apo-Transferrin, 37° C., 18 hours; read-out: Minimum Inhibitory Concentrations, PA-RR-(G8062859)
Method in brief: (§3)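 Overnight (18 h, 37 °C) microdilution assay. Pre-grown LB cultures were brought to 0.08-0.1 OD600 in cation-adjusted Mueller-Hinton broth; wells contained 20 μM apo-transferrin and compound between 64 and 0.125 μg/mL. Lowest clear-well concentration recorded as MIC.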

[10] = test system: Pseudomonas aeruginosa PA-RR-(G7304100); assay: MIC determination; conditions: Pseudomonas aeruginosa; PA-RR-(G7304100); CAMH broth, 20 μM Apo-Transferrin, 37° C., 18 hours; read-out: Minimum Inhibitory Concentrations, PA-RR-(G7304100)
Method in brief: as §3

[11] = test system: Pseudomonas aeruginosa PA-RR-(G7294437); assay: MIC determination; conditions: Pseudomonas aeruginosa; PA-RR-(G7294437); CAMH broth, 20 μM Apo-Transferrin, 37° C., 18 hours; read-out: Minimum Inhibitory Concentrations, PA-RR-(G7294437)
Method in brief: as §3

[12] = test system: Pseudomonas aeruginosa PA (RR-1); assay: MIC determination; conditions: Pseudomonas aeruginosa; PA (RR-1); CAMH broth, 20 μM Apo-Transferrin, 37° C., 18 hours; read-out: Minimum Inhibitory Concentrations, PA (RR-1)
Method in brief: as §3

[13] = test system: Pseudomonas aeruginosa PA (URMC-3); assay: MIC determination; conditions: Pseudomonas aeruginosa; PA (URMC-3); CAMH broth, 20 μM Apo-Transferrin, 37° C., 18 hours; read-out: Minimum Inhibitory Concentrations, PA (URMC-3)
Method in brief: as §3

[14] = test system: Pseudomonas aeruginosa (PA); assay: MIC determination; conditions: Pseudomonas aeruginosa; PA; CAMH broth, 20 μM Apo-Transferrin, 37° C., 18 hours; read-out: Minimum Inhibitory Concentrations, PA
Method in brief: as §3

[15] = test system: Isogenic E. coli J58 strain carrying KPC-3; assay: MIC determination, isogenic E. coli strains; conditions: Escherichia coli, 18 h, read-out: Mimimum Inhibitory Concentrations, KPC-3
Method in brief: (§4)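 Strain: E. coli J53 electroporated with a pBC-SK(+) plasmid encoding the KPC enzyme, selected on ampicillin. Twofold dilutions ([…]) were made in CAMH broth containing 20 μM apo-transferrin and inoculated at 0.5 McFarland. After overnight (18 h) growth at 37 °C, MIC was read as the lowest concentration with no visible growth.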

[16] = test system: Isogenic E. coli J58 strain carrying KPC-2; assay: MIC determination, isogenic E. coli strains; conditions: Escherichia coli, 18 h, read-out: Mimimum Inhibitory Concentrations, KPC-2
Method in brief: as §4

[17] = test system: Isogenic E. coli J58 strain carrying IMP-1; assay: MIC determination, isogenic E. coli strains; conditions: Escherichia coli, 18 h, read-out: Mimimum Inhibitory Concentrations, IMP-1
Method in brief: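 Broth microdilution in cation-adjusted Mueller-Hinton broth with 20 μM apo-transferrin, compound serially diluted two-fold from 64 μg/mL, against E. coli J53 carrying plasmid-borne IMP-1. Inoculum adjusted to 0.5 McFarland; plates incubated 18 h at 37° C. MIC taken as lowest concentration giving a clear well.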

Row | SMILES | MIC [1] | MIC [2] | MIC [3] | MIC [4] | MIC [5] | MIC [6] | MIC [7] | Mimimum Inhibitory Concentrations, J53 Alone [7] | MIC [8] | MIC [9] | MIC [10] | MIC [11] | MIC [12] | MIC [13] | MIC [14] | MIC [15] | MIC [16] | MIC [17]
1 | CC(C)(O/N=C(\C(=O)N[C@@H]1C(=O)N2C(C(=O)O)=C(C=Cc3ccc(C[n+]4cccc(-c5ccc(O)c(O)c5)c4)cc3)CS[C@H]12)c1csc(N)n1)C(=O)O (mixture of isomers) [Compound 413, 1-(4-((E/Z)-2-((6R,7R)-7-((Z)-2-(2-aminothiazol-4-yl)-2-(((2-carboxypropan-2-yl)oxy)imino)acetamido)-2-carboxy-8-oxo-5-thia-1-azabicyclo[4.2.0]oct-2-en-3 yl)vinyl)benzyl)-3-(3,4-dihydroxyphenyl)pyridin-1-ium] | 1 µg/mL | > 64 µg/mL | 2 µg/mL | 2 µg/mL | 2 µg/mL | 0.5 µg/mL | 0.25 µg/mL | 0.25 microgram/mL | 0.13 µg/mL | 2 µg/mL | ≤ 0.06 µg/mL | 1 µg/mL | 4 µg/mL | 0.13 µg/mL | 4 µg/mL | 4 µg/mL | 8 µg/mL | 64 µg/mL
2 | Cc1c[n+](Cc2ccc(C=CC3=C(C(=O)O)N4C(=O)[C@@H](NC(=O)/C(=N\OC(C)(C)C(=O)O)c5csc(N)n5)[C@H]4SC3)cc2)ccc1-c1ccc(O)c(O)c1 (mixture of isomers) [Compound 422, 1-(4-((E/Z)-2-((6R,7R)-7-((Z)-2-(2-aminothiazol-4-yl)-2-(((2-carboxypropan-2-yl)oxy)imino)acetamido)-2-carboxy-8-oxo-5-thia-1-azabicyclo[4.2.0]oct-2-en-3-yl)vinyl)benzyl)-4-(3,4-dihydroxyphenyl)-3-methylpyridin-1-ium] | 4 µg/mL | > 64 µg/mL | 4 µg/mL | 4 µg/mL | 2 µg/mL | 1 µg/mL | 0.25 µg/mL | 0.25 microgram/mL | 0.25 µg/mL | 2 µg/mL | ≤ 0.06 µg/mL | 2 µg/mL | 4 µg/mL | ≤ 0.06 µg/mL | 8 µg/mL | 8 µg/mL | 16 µg/mL | > 64 µg/mL
3 | CC(C)(O/N=C(\C(=O)N[C@@H]1C(=O)N2C(C(=O)O)=C(C=Cc3ccc(C[N+]4(C)Cc5cc(O)c(O)cc5C4)cc3)CS[C@H]12)c1csc(N)n1)C(=O)O (mixture of isomers) [Compound 424, 2-(4-((E/Z)-2-((6R,7R)-7-((Z)-2-(2-aminothiazol-4-yl)-2-(((2-carboxypropan-2-yl)oxy)imino)acetamido)-2-carboxy-8-oxo-5-thia-1-azabicyclo[4.2.0]oct-2-en-3-yl)vinyl)benzyl)-5,6-dihydroxy-2-methylisoindolin-2-ium] | 4 µg/mL | > 64 µg/mL | 2 µg/mL | 1 µg/mL | 2 µg/mL | 2 µg/mL | 0.25 µg/mL | 0.25 microgram/mL | 0.5 µg/mL | 2 µg/mL | ≤ 0.06 µg/mL | 0.25 µg/mL | 4 µg/mL | 0.13 µg/mL | 2 µg/mL | 8 µg/mL | 32 µg/mL | > 64 µg/mL
4 | CC(C)(O/N=C(\C(=O)N[C@@H]1C(=O)N2C(C(=O)O)=C(C=Cc3ccc(C[N+](C)(C)Cc4ccc(O)c(O)c4)cc3)CS[C@H]12)c1csc(N)n1)C(=O)O (mixture of isomers) [Compound 426, N-(4-((E/Z)-2-((6R,7R)-7-((Z)-2-(2-aminothiazol-4-yl)-2-(((2-carboxypropan-2-yl)oxy)imino)acetamido)-2-carboxy-8-oxo-5-thia-1-azabicyclo[4.2.0]oct-2-en-3-yl)vinyl)benzyl)-1-(3,4-dihydroxyphenyl)-N,N-dimethylmethanaminium] | 8 µg/mL | > 64 µg/mL | 0.5 µg/mL | 0.5 µg/mL | 0.5 µg/mL | 8 µg/mL | 1 µg/mL | 1 microgram/mL | 0.5 µg/mL | 2 µg/mL | 0.25 µg/mL | 0.5 µg/mL | 4 µg/mL | 64 µg/mL | 4 µg/mL | 8 µg/mL | 64 µg/mL | 32 µg/mL
5 | CC(C)(O/N=C(\C(=O)N[C@@H]1C(=O)N2C(C(=O)O)=C(C=Cc3ccc(C[n+]4ccc(NC(=O)c5ccc(O)c(O)c5)cc4)cc3)CS[C@H]12)c1csc(N)n1)C(=O)O (mixture of isomers) [Compound 427, 1-(4-((E/Z)-2-((6R,7R)-7-((Z)-2-(2-aminothiazol-4-yl)-2-(((2-carboxypropan-2-yl)oxy)imino)acetamido)-2-carboxy-8-oxo-5-thia-1-azabicyclo[4.2.0]oct-2-en-3-yl)vinyl)benzyl)-4-(3,4-dihydroxybenzamido)pyridin-1-ium] | 2 µg/mL | > 64 µg/mL | 1 µg/mL | 1 µg/mL | 1 µg/mL | 1 µg/mL | ≤ 0.06 µg/mL | ≤0.06 microgram/mL | 1 µg/mL | 0.25 µg/mL | ≤ 0.06 µg/mL | ≤ 0.06 µg/mL | 4 µg/mL | 0.25 µg/mL | 0.06 µg/mL | 4 µg/mL | 16 µg/mL | 16 µg/mL
